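Grown in 96-well plates, cells were treated for 48 hours with each compound at five concentrations. Insufficient inhibition: endpoint recorded as highest concentration tested. GI50 is the concentration that inhibits growth by half.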 Activity calls are given as the source filed them. No stated cut-off is given here; in the data, active = GI50 up to about 1.1 µM and inactive = higher.
Assays:
Experiment in all cases: NCI anticancer screen, dose series, 48 h
A498 = tested on: A498
CAKI-1 = tested on: CAKI-1
COLO 205 = tested on: COLO 205
DU-145 = tested on: DU-145
EKVX = tested on: EKVX
HL-60 = tested on: HL-60
IGROV-1 = tested on: IGROV-1
KM12 = tested on: KM12
M14 = tested on: M14
MDA-MB-231 = tested on: MDA-MB-231
MOLT-4 = tested on: MOLT-4
Malme-3M = tested on: Malme-3M
NCI-H226 = tested on: NCI-H226
OVCAR-5 = tested on: OVCAR-5
SF-268 = tested on: SF-268
SN12C = tested on: SN12C
SNB-19 = tested on: SNB-19
SNB-75 = tested on: SNB-75
SR = tested on: SR
HCT-15 = tested on: HCT-15

| SMILES | GI50 (A498) | GI50 (CAKI-1) | GI50 (COLO 205) | GI50 (DU-145) | GI50 (EKVX) | GI50 (HL-60) | GI50 (IGROV-1) | GI50 (KM12) | GI50 (M14) | GI50 (MDA-MB-231) | GI50 (MOLT-4) | GI50 (Malme-3M) | GI50 (NCI-H226) | GI50 (OVCAR-5) | GI50 (SF-268) | GI50 (SN12C) | GI50 (SNB-19) | GI50 (SNB-75) | GI50 (SR) | GI50 (HCT-15) |
| --- | --- | --- | --- | --- | --- | --- | --- | --- | --- | --- | --- | --- | --- | --- | --- | --- | --- | --- | --- | --- |
| CC1(C)C2CCC1(C)C(NC(=O)COCCOCC(N)=O)C2 (stereo not drawn) | > 100 µM (inactive) | > 100 µM (inactive) | 94.8 µM (inactive) | > 100 µM (inactive) | > 100 µM (inactive) | 56.2 µM (inactive) | > 100 µM (inactive) | > 100 µM (inactive) | > 100 µM (inactive) | > 100 µM (inactive) | > 100 µM (inactive) | > 100 µM (inactive) | > 100 µM (inactive) | > 100 µM (inactive) | > 100 µM (inactive) | > 100 µM (inactive) | > 100 µM (inactive) | > 100 µM (inactive) | 31.1 µM (inactive) |  |
| O=C(O)/C(Cc1c[nH]nn1)=N\O | > 100 µM (inactive) | > 100 µM (inactive) | > 100 µM (inactive) | > 100 µM (inactive) | > 100 µM (inactive) | > 100 µM (inactive) | > 100 µM (inactive) | > 100 µM (inactive) | > 100 µM (inactive) | > 100 µM (inactive) | > 100 µM (inactive) | > 100 µM (inactive) | > 100 µM (inactive) | > 100 µM (inactive) | > 100 µM (inactive) | > 100 µM (inactive) | > 100 µM (inactive) | > 100 µM (inactive) | > 100 µM (inactive) | > 100 µM |
| OCC1OC(c2n[nH]c3c(O)ncnc23)C(O)C1O (stereo not drawn) | 30.1 µM (inactive) | 6.81 µM (inactive) | 13.9 µM (inactive) | 1.48 µM (inactive) | 28 µM (inactive) | 3.02 µM (inactive) | 18.4 µM (inactive) | 16.7 µM (inactive) | 5.48 µM (inactive) | 3.66 µM (inactive) | 5.37 µM (inactive) | 16.1 µM (inactive) | 44.9 µM (inactive) | 18.9 µM (inactive) |  | 10.3 µM (inactive) | 31 µM (inactive) | > 100 µM (inactive) | 27.7 µM (inactive) | 6.03 µM |
| CC(C(=O)OCc1ccccc1)(c1ccco1)N1C(=O)OC(c2ccccc2)C1c1ccccc1 (stereo not drawn) | > 59.8 µM (inactive) | > 100 µM (inactive) | > 100 µM (inactive) | > 100 µM (inactive) | 99.3 µM (inactive) | 3.81 µM (inactive) | > 100 µM (inactive) | > 25.8 µM (inactive) | > 100 µM (inactive) | > 30.5 µM (inactive) | 5.05 µM (inactive) | > 100 µM (inactive) | > 100 µM (inactive) | > 100 µM (inactive) | > 100 µM (inactive) | > 100 µM (inactive) | > 100 µM (inactive) | > 100 µM (inactive) | > 34.8 µM (inactive) | > 100 µM |
| CCOC(CN(C)C(=S)Nc1cccc2ccccc12)OCC | 6.95 µM (inactive) | > 10 µM (inactive) | > 10 µM (inactive) | > 10 µM (inactive) | > 10 µM (inactive) | > 10 µM (inactive) | > 10 µM (inactive) | > 10 µM (inactive) | > 10 µM (inactive) | > 10 µM (inactive) | > 10 µM (inactive) | > 10 µM (inactive) | > 10 µM (inactive) |  | > 10 µM (inactive) | > 10 µM (inactive) | > 10 µM (inactive) | > 10 µM (inactive) | > 10 µM (inactive) | > 10 µM |
| COC1=CC(=O)c2c(cc(COP(N)(=O)N(CCBr)CCBr)n2C)C1=O (stereo not drawn) | 1.26 µM (inactive) | < 0.01 µM (active) | 0.0242 µM (active) | < 0.01 µM (active) | 0.0212 µM (active) | 0.0113 µM (active) | 0.0188 µM (active) | 1 µM (active) | < 0.01 µM (active) | 2.1 µM (inactive) | < 0.01 µM (active) | 0.308 µM (active) | < 0.01 µM (active) | 0.104 µM (active) | < 0.01 µM (active) | < 0.01 µM (active) | 1.3 µM (inactive) | < 0.01 µM (active) | < 0.01 µM (active) | 0.242 µM |
| COc1ccc2cc(C(=O)CCC(=O)O)ccc2c1 | > 100 µM (inactive) | > 100 µM (inactive) | > 100 µM (inactive) | > 100 µM (inactive) | > 100 µM (inactive) | > 100 µM (inactive) | > 100 µM (inactive) | > 100 µM (inactive) | > 100 µM (inactive) | > 100 µM (inactive) | > 100 µM (inactive) | > 100 µM (inactive) | > 100 µM (inactive) | > 100 µM (inactive) | > 100 µM (inactive) | > 100 µM (inactive) | > 100 µM (inactive) | 50.1 µM (inactive) | > 100 µM (inactive) | > 100 µM |
| CCOC(=O)c1cc(-c2ccc(OC)cc2)c([N+](=O)[O-])[nH]1 | > 10 µM (inactive) | > 10 µM (inactive) | > 10 µM (inactive) | > 10 µM (inactive) | > 10 µM (inactive) | > 10 µM (inactive) | > 10 µM (inactive) | > 10 µM (inactive) | > 10 µM (inactive) | 0.1 µM (active) | > 10 µM (inactive) | > 10 µM (inactive) | > 9.08 µM (inactive) | > 10 µM (inactive) | > 10 µM (inactive) | > 10 µM (inactive) | > 10 µM (inactive) | > 10 µM (inactive) | > 10 µM (inactive) | > 10 µM |
| CCC1c2[nH]c3ccccc3c2C[C@H]2C(=O)NC(COC(C)(C)C)C(=O)N12 (stereo partly drawn) | 72.3 µM (inactive) | 44.9 µM (inactive) | 19.7 µM (inactive) | 67.6 µM (inactive) | 45.2 µM (inactive) | 21.3 µM (inactive) | 29.8 µM (inactive) | 27.9 µM (inactive) | 30.1 µM (inactive) | 36.9 µM (inactive) | 31.4 µM (inactive) | 21.7 µM (inactive) | > 100 µM (inactive) | 47.3 µM (inactive) | 67.3 µM (inactive) | 45.5 µM (inactive) | 49.1 µM (inactive) | 19.8 µM (inactive) | 31.3 µM (inactive) | 48 µM |
| CC(=O)Nc1ccc(S(=O)(=O)/N=C2\C=CC(=O)c3ccccc32)cc1 | 10.3 µM (inactive) | 17.3 µM (inactive) | 13.3 µM (inactive) | 7.4 µM (inactive) | 6 µM (inactive) | 0.481 µM (active) | 2.58 µM (inactive) | 10.5 µM (inactive) | 4.44 µM (inactive) | 2.78 µM (inactive) | 0.428 µM (active) | 3.65 µM (inactive) | 5.97 µM (inactive) | 8.55 µM (inactive) | 8.02 µM (inactive) | 4.92 µM (inactive) | 11.6 µM (inactive) | 5.4 µM (inactive) | 2.25 µM (inactive) | 7.62 µM |
| COc1ccc2c(c1)C(=O)c1ccccc1C2 | 29.7 µM (inactive) | 79.6 µM (inactive) | 54.5 µM (inactive) | 17.1 µM (inactive) | 39.6 µM (inactive) | 16.3 µM (inactive) | 38.8 µM (inactive) | 63 µM (inactive) | 93.8 µM (inactive) | 18.9 µM (inactive) | 28.6 µM (inactive) |  | > 100 µM (inactive) | > 100 µM (inactive) | 70.5 µM (inactive) | > 100 µM (inactive) | > 100 µM (inactive) | 26.5 µM (inactive) | 46.7 µM (inactive) | 60.7 µM |
| O=C1N=C(SC2OC(CO)C(O)C(O)C2O)S/C1=C\c1ccccc1 (stereo not drawn) | > 100 µM (inactive) | > 100 µM (inactive) |  | > 100 µM (inactive) |  | > 100 µM (inactive) | > 100 µM (inactive) | > 100 µM (inactive) | > 100 µM (inactive) | > 100 µM (inactive) | > 100 µM (inactive) | > 100 µM (inactive) | > 100 µM (inactive) | > 100 µM (inactive) | > 100 µM (inactive) | > 100 µM (inactive) | > 100 µM (inactive) | > 100 µM (inactive) | > 100 µM (inactive) | > 100 µM |
| Fc1ccc2nc3n(c2c1)C(c1c(Cl)cccc1Cl)SC3 (stereo not drawn) | > 100 µM (inactive) | > 100 µM (inactive) | > 100 µM (inactive) | > 100 µM (inactive) |  |  | > 100 µM (inactive) | > 100 µM (inactive) | > 100 µM (inactive) | > 100 µM (inactive) | 6.71 µM (inactive) | > 100 µM (inactive) | > 100 µM (inactive) | > 100 µM (inactive) | > 100 µM (inactive) | > 100 µM (inactive) | > 100 µM (inactive) | 63.4 µM (inactive) | 4.3 µM (inactive) | > 100 µM |
| COC1/C=C/C=C(/C)Cc2cc(O)c(Cl)c(c2)N(C)C(=O)CC(OC(=O)C(C)C)C2(C)OC2C(C)C2CC1(O)NC(=O)O2 (stereo not drawn) | < 0.01 µM (active) | 21.2 µM (inactive) | < 0.01 µM (active) | < 0.01 µM (active) |  | < 0.01 µM (active) | < 0.01 µM (active) | < 0.01 µM (active) | < 0.01 µM (active) | < 0.01 µM (active) | < 0.01 µM (active) |  | > 100 µM (inactive) |  | < 0.01 µM (active) | < 0.01 µM (active) | < 0.01 µM (active) | < 0.01 µM (active) | < 0.01 µM (active) | < 0.01 µM |
| CCCCOc1ccc(NC(=N)Nc2ccc(Cl)cc2)cc1 | 0.443 µM (active) |  | 0.125 µM (active) | 0.462 µM (active) | 2.37 µM (inactive) | 6.49 µM (inactive) | 1.22 µM (inactive) | 12.5 µM (inactive) | 3.66 µM (inactive) | 13.2 µM (inactive) | 1.42 µM (inactive) | 3.47 µM (inactive) | 12.7 µM (inactive) | 1.68 µM (inactive) | 0.92 µM (active) | 0.791 µM (active) | 2.74 µM (inactive) | 4.47 µM (inactive) | 3.38 µM (inactive) | 9.35 µM |
